Reference: ChEMBL document CHEMBL1800066 (J Med Chem, 2011)
pIC50: −log10 of the molar value. Converted amounts (≈) assume the structure as drawn.

What was measured:
[1] = Antiproliferative activity against human GTL16 cells after 72 hrs; details: GTL 16, 72 h
[2] = biological target: Voltage-gated inwardly rectifying potassium channel KCNH2 (Homo sapiens, UniProt Q12809); experiment: Inhibition of Kv11.1 channel
[3] = Inhibition of potassium channel IKr
[4] = Plasma clearance in rat at 0.31 mg/kg, iv and 0.62 mg/kg, po; assay type: ADME, organism-based
[5] = Volume of distribution at steady state in rat at 0.31 mg/kg, iv and 0.62 mg/kg, po; assay type: ADME, organism-based; details: in vivo, read-out: Vdss
[6] = Half life in rat at 0.31 mg/kg, iv and 0.62 mg/kg, po; assay type: ADME, organism-based; details: in vivo
[7] = Oral bioavailability in rat at 0.62 mg/kg; assay type: ADME, organism-based; details: in vivo
[8] = biological target: T1, Hepatocyte growth factor receptor (Homo sapiens, UniProt P08581)
[9] = Plasma clearance in rat at 2 mg/kg, iv and 4 mg/kg, po; assay type: ADME, organism-based
[10] = Half life in rat at 2 mg/kg, iv and 4 mg/kg, po; assay type: ADME, organism-based; details: in vivo
[11] = Oral bioavailability in rat at 4 mg/kg; assay type: ADME, organism-based; details: in vivo
[12] = biological target: Cytochrome P450 3A4 (Homo sapiens, UniProt P08684); experiment: Inhibition of CYP3A4; assay type: ADME
[13] = biological target: Cytochrome P450 2C9 (Homo sapiens, UniProt P11712); experiment: Inhibition of CYP2C9; assay type: ADME
[14] = biological target: Cytochrome P450 2D6 (Homo sapiens, UniProt P10635); experiment: Inhibition of CYP2D6; assay type: ADME
[15] = Lipophilicity, log P of the compound; assay type: physicochemical; details: octanol/water
[16] = Solubility of the compound at pH 7.4; assay type: physicochemical; details: buffer
[17] = biological target: T1, Hepatocyte growth factor receptor; experiment: Inhibition of c-MET overexpressed in human GTL-16 cells assessed as phosphorylation at C-terminal Y1349 after 2 hrs by Western blot analysis; assay type: cell-based
[18] = system: Rattus norvegicus; experiment: Volume of distribution at steady state in rat at 1 mg/kg, iv and po; assay type: ADME, organism-based; set-up: dose 1 mg/kg, route oral; details: in vivo
[19] = Half life in rat at 1 mg/kg, iv and po; assay type: ADME, organism-based; set-up: dose 1 mg/kg, route oral; details: in vivo
[20] = Oral bioavailability in rat at 1 mg/kg; assay type: ADME, organism-based; details: in vivo
[21] = Half life in rat at 2 mg/kg, iv; assay type: ADME, organism-based; set-up: dose 2 mg/kg, route intravenous; details: in vivo
[22] = Plasma clearance in rat at 2 mg/kg, iv; assay type: ADME, organism-based; set-up: dose 2 mg/kg, route intravenous
[23] = Volume of distribution at steady state in rat at 2 mg/kg, iv; assay type: ADME, organism-based; set-up: dose 2 mg/kg, route intravenous; details: in vivo, read-out: Vdss
[24] = Volume of distribution at steady state in rat at 2 mg/kg, iv and 4 mg/kg, po; assay type: ADME, organism-based; details: in vivo, read-out: Vdss

`CN(C)CCCn1cc(-c2cnc3ccc4ccc(NS(=O)(=O)N(C)C)cc4c(=O)c3c2)cn1` showed a pIC50 [1] of 5.96.

In the case of `CN(C)S(=O)(=O)Nc1ccc2ccc3ncc(-c4cnn(C)c4)cc3c(=O)c2c1`, the pIC50 [2] was less than 4.52 and the pIC50 [3] was less than 4.52.

`COCC(F)Cn1cc(-c2cnc3ccc4ccc(NS(=O)(=O)N(C)C)cc4c(=O)c3c2)cn1` (racemic) gave a pIC50 [1] of 7.27.

Work on `CN(Cc1ccccc1)S(=O)(=O)Nc1ccc2ccc3ncc(-c4cnn(C)c4)cc3c(=O)c2c1` yielded a pIC50 [1] of 4.30 and a pIC50 [2] of less than 4.52.

Compound `CCCn1cc(-c2cnc3ccc4ccc(NS(=O)(=O)N(C)C)cc4c(=O)c3c2)cn1` has a pIC50 [1] of 6.11.

With `CN([C@H]1CCOC1)S(=O)(=O)Nc1ccc2ccc3ncc(-c4cnn(C)c4)cc3c(=O)c2c1` the pIC50 [1] was 6.24, the clearance [4] was 11 mL/min/kg and the Vd [5] was 1.1 L/kg. The half-life [6] was 1.2 h, the bioavailability [7] was 38% and the pIC50 [2] was less than 4.52.

In the case of `CN(C)S(=O)(=O)Nc1ccc2ccc3ncc(-c4cnn(-c5ccccn5)c4)cc3c(=O)c2c1`, the pIC50 [1] was 5.89.

`CS(=O)(=O)Nc1ccc2ccc3nccc(Cl)c3c(=O)c2c1` gave a pIC50 [8] of less than 5.00.

Compound `CS(=O)(=O)Nc1ccc2ccc3ncc(-c4ccccc4)cc3c(=O)c2c1` has a pIC50 [1] of less than 4.30, a clearance [9] of 24 mL/min/kg and a half-life [10] of 0.5 h. The bioavailability [11] was 2%, the pIC50 [2] was 6.54 and the pIC50 [12] was less than 4.30. It also gave a pIC50 [13] of less than 4.30, a pIC50 [14] of less than 4.30 and a logP [15] of 3.15. It also gave a solubility [16] of 0.5 µg/mL (≈ 1.33 µM).

`CN(C)S(=O)(=O)Nc1ccc2ccc3ncc(-c4cnn(CCCO)c4)cc3c(=O)c2c1` showed a pIC50 [1] of 6.43.

Work on `CN(C)S(=O)(=O)Nc1ccc2ccc3ncc(-c4cnn(CC(=O)N5CCOCC5)c4)cc3c(=O)c2c1` yielded a pIC50 [1] of 5.77.

`CN(C[C@H]1COCCO1)S(=O)(=O)Nc1ccc2ccc3ncc(-c4cnn(C)c4)cc3c(=O)c2c1` showed a pIC50 [17] of 6.68, a pIC50 [1] of 5.55 and a pIC50 [2] of less than 4.52. The pIC50 [8] was 7.85.

With `Cn1cc(-c2cnc3ccc4ccc(NS(=O)(=O)N5CCC5)cc4c(=O)c3c2)cn1` the pIC50 [1] was 5.96, the Vdss [18] was 0.95 L/kg and the half-life [19] was 3.3 h. The bioavailability [20] was 29%.

Work on `CN(C)S(=O)(=O)Nc1ccc2ccc3ncc(-c4cnn(CC(F)CO)c4)cc3c(=O)c2c1` (racemic) yielded a pIC50 [1] of 6.57.

Compound `COCCCN(C)S(=O)(=O)Nc1ccc2ccc3ncc(-c4cnn(C)c4)cc3c(=O)c2c1` has a pIC50 [1] of 5.82, a half-life [21] of 1.3 h and a clearance [22] of 10.7 mL/min/kg. It also gave a Vd [23] of 1.1 L/kg and a pIC50 [2] of less than 4.52.

`CS(=O)(=O)Nc1ccc2c(=O)c3cc(-c4ccccc4)cnc3ccc2c1` gave a pIC50 [8] of less than 5.00.

In the case of `Cn1cc(-c2cnc3ccc4ccc(NS(=O)(=O)N5CC(F)C5)cc4c(=O)c3c2)cn1`, the pIC50 [1] was 5.62, the half-life [21] was 1.8 h and the clearance [22] was 2.9 mL/min/kg. It also gave a Vd [23] of 0.41 L/kg.

Compound `Cn1cc(-c2cnc3ccc4ccc(NS(N)(=O)=O)cc4c(=O)c3c2)cn1` has a pIC50 [1] of 6.00 and a pIC50 [2] of 5.37.

In the case of `CNS(=O)(=O)Nc1ccc2ccc3ncc(-c4cnn(C)c4)cc3c(=O)c2c1`, the pIC50 [1] was 6.12, the clearance [9] was 33.8 mL/min/kg and the Vd [24] was 2.5 L/kg. It also gave a half-life [10] of 0.9 h and a bioavailability [11] of 33%.

For `CCN1CCC(n2cc(-c3cnc4ccc5ccc(NS(=O)(=O)N(C)C)cc5c(=O)c4c3)cn2)CC1`, the pIC50 [1] was 7.26.

`Cn1cc(-c2cnc3ccc4ccc(NS(C)(=O)=O)cc4c(=O)c3c2)cn1` showed a pIC50 [1] of 5.72, a clearance [9] of 40 mL/min/kg and a half-life [10] of 0.5 h. For the same compound, the pIC50 [2] was 5.00 and the pIC50 [3] was 6.48.

Compound `CCN(CC)S(=O)(=O)Nc1ccc2ccc3ncc(-c4cnn(C)c4)cc3c(=O)c2c1` has a pIC50 [1] of 5.66.

In the case of `CN(C)S(=O)(=O)Nc1ccc2ccc3ncc(-c4cnn(CCF)c4)cc3c(=O)c2c1`, the pIC50 [1] was 6.21.

`Cn1cc(-c2cnc3ccc4ccc(NS(=O)(=O)N5CCOCC5)cc4c(=O)c3c2)cn1` showed a pIC50 [1] of 4.96.

For `CN(Cc1cnccn1)S(=O)(=O)Nc1ccc2ccc3ncc(-c4cnn(C)c4)cc3c(=O)c2c1`, the pIC50 [1] was 5.96, the half-life [21] was 0.7 h and the clearance [22] was 39 mL/min/kg. For the same compound, the Vd [23] was 2.4 L/kg and the pIC50 [2] was 5.15.
